Source: US10953113B2, “Imaging agents and methods of use” (The Board of Regents of the University of Oklahoma, priority 2016, dated 2021)
Entries after “also recorded” stand apart in the source; their conditions may differ.

What was measured:
[1] = test system: infarct region in brain (MCAO); test: PET/SPECT imaging in middle cerebral artery occlusion (MCAO) mouse model of brain stroke; assay type: in vivo; details: for Uptake in stroke regions: MCAO mouse model, FIG. 13, PET or SPECT
Experimental: Fasted mice are anesthetized with 1.5% isoflurane in a stream of O2:N2 mixture (30:70, 1 L/min) and blanketed in a thermostatic blanket at 37° C. […] The common carotid artery is occluded by a micro-clip. The left ECA is ligated, coagulated, and cut distal to the cranial thyroid artery. A 15 mm monofilament nylon suture (6-0, dia of heat-rounded tip=0.2-0.3 mm) is inserted into the ECA and gently advanced through the ICA until its tip has occluded the origin of the MCA. Correct placement of the suture is indicated by a sudden drop of the local cortical blood flow in the left MCA territory to 10-20% of basal flow. CBF is monitored by non-invasive laser Doppler flowmetry (Moor Instruments). A sustained reduction of >80% is indicative of successful MCAO. The monofilament is secured in place with a ligature and the skin incision is closed. The monofilament suture is left in place for permanent MCAO, but for transient MCAO, the occluding suture is removed after 1 h by anesthetizing the mouse and re-opening the wound.
^18F-FGA was found, in the present work, to accumulate in the brain of a mouse model of brain stroke created by middle cerebral artery occlusion (MCAO). To test ^18F-FGA for imaging infarct in brain, we employed a mouse model of permanent MCAO. PET was performed after 2 h of MCAO surgery. Approximately 1 mCi of ^18F-FGA was injected (i.v.) and a 20 min image was acquired after 1 h of injection. […] We also performed 1 day post-MCAO imaging of brain excised after 2 h of ^18F-FGA injection.

rats = test: ISO-induced myocardial injury in rats (ECG, cardiac troponin I, corticosterone, TTC staining); assay type: in vivo, Sprague Dawley rats
Experimental: (§1) Male Sprague Dawley rats (250-300 g) were purchased from Harlan (Indianapolis, Ind., USA), housed in regular light/dark cycles and allowed to acclimatize for at least 5 days prior to the experiments. Myocardial injury was induced by administering a sterile aqueous solution of ISO at a dose rate of 150 mg/kg bodyweight. The drug was intraperitoneally injected on two consecutive days.
Lead 1 ECG of isoflurane-anesthetized rats was recorded by placing negative electrode on the right front paw, positive electrode on the left front paw, and ground lead on to the left hind paw. The electrodes were secured to the lead (CB Sciences C-ISO-255), bioamplifier (ETH-225), and analog to digital converter (iWorx 118) and the signal was recorded using Labscribe 2.0 software (iWorx, Dover, N.H.). Before analysis of raw data, the signal was filtered to eliminate 60 Hz mains frequency.
Blood samples were collected before euthanasia and plasma was separated by centrifugation (5,000 rpm for 5 min). We determined the levels of cardiac TnI (cTnI) in plasma by using a rat-specific enzyme-linked immunoassay kit obtained from Life Diagnostics (West Chester, Pa.). The plasma samples were diluted 1:2 with PBS before estimation.
We measured the concentration of stress hormone corticosterone in undiluted plasma by using an ELISA kit from Cayman Chemicals (Ann Arbor, Mich.). Corticosterone is the only glucocorticoid present in rats.
After the final session of imaging and blood sample collection, the rats were euthanized and their hearts were immediately collected and frozen at −20° C. for 2 h. The hearts were sectioned into 2 mm slices and placed in 1% solution of TTC in PBS at 37° C. with intermittent shaking. After 30 min of staining, the TTC was removed and replaced with 10% buffered fomialin overnight.

[2] = Biodistribution of ^18F-FGA in normal mice; assay type: in vivo, CD1 mice; details: for Biodistribution, Blood / Biodistribution, Bone / Biodistribution, Brain / Biodistribution, Heart / Biodistribution, Kidney / Biodistribution, Liver / Biodistribution, Lung / Biodistribution, Muscle / Biodistribution, Spleen: i.v. 0.1 mCi, decay-corrected, mean ± SD
Experimental: All animal work described herein was performed according to the NIH Animal Use and Care Guidelines and was approved by the institutional IACUC. Nine male and three female CD1 mice (20-36 g) were obtained from Harlan Laboratories (Indianapolis, Ind.), and housed in a controlled environment with 12 h day/night cycle. The mice were allowed to acclimatize for at least 1 week before inclusion in the study. On the day of imaging, the animals were anesthetized with 2-3% isoflurane in oxygen stream. Approximately 100 μCi of ^18F-FGA was injected intravenously in the tail vein. The animals were placed in a cage with absorbent padding until biodistribution. Briefly, the mice were euthanized after 1 or 3 hours post injection by an over-dose of isoflurane (4%) followed by cervical dislocation. Various organs were excised, washed with saline, weighed, and appropriate tissue samples were counted in an automated gamma counter (Packard Cobra II Auto Gamma, Perkin Elmer, Boston, Mass.). Total blood volume, bone, and muscle mass were estimated as 5.7%, 10% and 40% of body weight, respectively. A diluted sample of injected ^18F-FGA served as a standard for comparison.
Results of a whole body distribution analysis of ^18F-FGA in various organs of normal mice 1 and 3 h after injection are shown in Table 1. Normal healthy mice were injected with ^18F-FGA (0.1 mCi) via the tail vein and the mice were euthanized at 1 h and 3 h post injection. […] All other organs accumulated less than 0.5% of the injected dose/g tissue. The concentration of ^18F-FGA in circulation was also negligible.
We injected 0.1 mCi (50 μl) of ^18F-FGA in normal healthy mice (n=8), and collected organs for counting at 1 h post-injection. The accumulation in the brain was less than about 0.1% and in all major organs was below 0.5% of the injected dose and it cleared via renal system. […] Rapid clearance and absence of accumulation in healthy cerebral tissue indicated effectiveness of ^18F-FGA for clear infarct imaging.

[3] = Circulation kinetics of ^18F-FGA in mice; assay type: in vivo, CD-1 mice; details: i.v., elimination phase, 30-180 minute time points
Experimental: Five male CD-1 mice were injected with 100 μCi of ^18F-FGA intravenously via the tail vein. At 0, 30, 60, 90, 120, and 180 minutes post injection, 25-50 μl of blood was sampled from the retro-orbital sinus. Blood was weighed and counted in an automated gamma counter (Packard Cobra II Auto Gamma, Perkin Elmer, Boston, Mass.). One mouse was excluded from the study based on macroscopic observations about the abnormal kidney morphology upon necropsy.
For statistical comparisons we employed GraphPad Prism 6 Software (GraphPad, La Jolla, Calif.). Two group comparisons were performed using a Student's T Test, comparisons between 3 or more groups were done using one way ANOVA. Pharmacokinetic parameters were calculated from the semi-log plot of time-activity curves using method of residuals.
Circulation kinetics of ^18F-FGA was studied over the course of 3 h. As shown in FIG. 6 (left panel), by 30 min, more than 99% of the injected dose was removed from circulation. […] Pharmacokinetic parameters were calculated from the 30-180 minute time points and are presented in tabular form (FIG. 6, right panel).

[4] = test system: ISO-induced myocardial injury; test: PET/SPECT imaging in rat model of ISO-induced myocardial damage; assay type: in vivo, Sprague Dawley rats; details: for Delineation of ISO-induced myocardial pathology by imaging: control vs ISO-treated rats
Experimental: as §1
In addition to the post-injury imaging, baseline images were also acquired before inducing ISO-injury. […] All injections were given intravenously in the tail vein of anesthetized (2% isoflurane-oxygen mixture) rats and imaging was performed at indicated times after the injections. Through the imaging period, anesthesia was maintained with a 2% isoflurane-oxygen mixture. For PET, the rats were positioned supine in a gantry of a PET-CT dual modality machine (Gamma Medica Ideas, Northridge, Calif.). A fly-mode CT of thoracic region was acquired before a 20 min list mode PET data acquisition. SPECT imaging was performed on a NanoSPECT machine (Trifoil Imaging, Chatsworth, Calif.) by helical SPECT acquisition of the thoracic region in 24 frames of 60 seconds each. After imaging, the rats were allowed to wake up and kept in their cage until the time of euthanasia.
The acquired PET images was reconstructed by filtered back projection algorithm and fused with the CT to generate a composite PET-CT image. SPECT acquisitions were reconstructed with HiSPECT reconstruction algorithm provided with the system.
Standard uptake value (SUV) was calculated by defining a three-dimensional region of interest (ROI) around the heart using the CT image. Background was determined by placing a spherical ROI at the same level as the 4th sternebrae in the XY plane in the posterior medial area of the left lung. Mean counts per voxel for the heart were normalized to mean background counts per voxel.

[5] = normal healthy mice (n=8), 0.1 mCi, 1 h post-injection
[6] = normal mice, 1 and 3 h after injection

## C/C(=N\[O-])[C@@H](C)[N-]CC(C)(C)C[N-][C@H](C)/C(C)=N/O.[O]=[99Tc+3] (racemic) [HMPAO, reference compound]
[1]
  Uptake in stroke regions: deficient uptake in stroke regions

## CC(C)NCC(O)c1ccc(O)c(O)c1 (stereo not shown) [ISO, isoproterenol]
rats; ISO-treated rats (n=4), 150 mg/kg i.p. on two consecutive days, plasma 24-48 hours after ISO
  Cardiac troponin in plasma: 63 pg/mL
rats; ISO-treated rats (n=6), 150 mg/kg i.p. on two consecutive days
  Plasma level of corticosterone: 34.1 ng/mL
rats; rats, after two consecutive days of ISO injection
  Heart histology (Evans blue, TTC staining): generalized and extensive necrosis
rats; rats, over the course of ISO treatment
  ST duration (ECG): increased
rats; rats, same day of ISO treatment
  R-R interval (ECG): significantly decreased

## O=C(O)[C@@H](O)[C@@H](O)[C@H](O)[C@@H]([18F])C(=O)O [^18F-FGA, 2-deoxy-2-[^18F]fluoroglucaric acid]
[2]; [5]
  Accumulation in all major organs: below 0.5 % of the injected dose
  Accumulation in the brain: less than 0.1 % of the injected dose
[2]; [6]
  Accumulation in all other organs (other than renal system): less than 0.5 % of the injected dose/g tissue
  Concentration in circulation: negligible
  Fate of the majority of injected radioactivity: excreted via the renal system
[2]; normal mice, 1 hour (n = 8)
  Biodistribution, Blood: 0.145 ± 0.095 % ID/g tissue
  Biodistribution, Bone: 0.321 ± 0.128 % ID/g tissue
  Biodistribution, Brain: 0.039 ± 0.027 % ID/g tissue
  Biodistribution, Heart: 0.056 ± 0.027 % ID/g tissue
  Biodistribution, Kidney: 4.226 ± 3.281 % ID/g tissue
  Biodistribution, Liver: 0.417 ± 0.128 % ID/g tissue
  Biodistribution, Lung: 0.192 ± 0.087 % ID/g tissue
  Biodistribution, Muscle: 0.049 ± 0.025 % ID/g tissue
  Biodistribution, Spleen: 0.074 ± 0.036 % ID/g tissue
[2]; normal mice, 3 hour (n = 4)
  Biodistribution, Blood: 0.051 ± 0.025 % ID/g tissue
  Biodistribution, Bone: 0.727 ± 0.773 % ID/g tissue
  Biodistribution, Brain: 0.014 ± 0.007 % ID/g tissue
  Biodistribution, Heart: 0.018 ± 0.01 % ID/g tissue
  Biodistribution, Kidney: 0.698 ± 0.378 % ID/g tissue
  Biodistribution, Liver: 0.087 ± 0.027 % ID/g tissue
  Biodistribution, Lung: 0.104 ± 0.073 % ID/g tissue
  Biodistribution, Muscle: 0.03 ± 0.018 % ID/g tissue
  Biodistribution, Spleen: 0.033 ± 0.015 % ID/g tissue
[1]; 1 day post-MCAO, brain excised 2 h after injection
  Ipsilateral vs contralateral accumulation in excised brain: higher accumulation in the ipsilateral side than the contralateral side
[1]
  Uptake in stroke regions: accumulates in stroke regions of ipsilateral cerebral hemisphere
[1]; permanent MCAO, PET after 2 h of MCAO, 1 mCi i.v., image 1 h after injection
  Accumulation in ipsilateral side of brain: central area of ^18F-FGA accumulation
[3]
  Elimination rate constant: 0.83 h⁻¹
  Half-life: approximately 35 minutes
[4]; PET, 1 h post-injection, after two consecutive days of ISO
  Accumulation in cardiac tissue of ISO-treated rats: accumulated large amounts
[4]; PET, ISO-treated rats
  Time to accumulation in ISO-treated hearts: ≤ 1 h
[4]; PET, ISO-treated rats, 4 h post-injection
  Contrast between accumulation in myocardial tissue and non-target tissues: very pronounced
[4]; PET, rats without ISO treatment
  Uptake in normal (baseline/control) heart: negligible uptake; also recorded: no detectable signal
[4]
  Delineation of ISO-induced myocardial pathology by imaging: clearly diagnosed ISO-induced cardiomyopathy

## [C-]#[N+]CC(C)(C)OC.[C-]#[N+]CC(C)(C)OC.[C-]#[N+]CC(C)(C)OC.[C-]#[N+]CC(C)(C)OC.[C-]#[N+]CC(C)(C)OC.[C-]#[N+]CC(C)(C)OC.[Tc] [^99mTc-Sestamibi, ^99mTc-sesta-methoxyisobutylisonitrile, reference compound]
[4]
  Delineation of ISO-induced myocardial pathology by imaging: unable to delineate ISO-induced myocardial pathology
